The test deals with T1, recombinant human ALX receptor (Homo sapiens, UniProt P25090).
T1 construct: expressed in transfected cells; host or cells: HEK293 (HEK293-hALXR-Gα16)
T1 sequence (P25090 1-351): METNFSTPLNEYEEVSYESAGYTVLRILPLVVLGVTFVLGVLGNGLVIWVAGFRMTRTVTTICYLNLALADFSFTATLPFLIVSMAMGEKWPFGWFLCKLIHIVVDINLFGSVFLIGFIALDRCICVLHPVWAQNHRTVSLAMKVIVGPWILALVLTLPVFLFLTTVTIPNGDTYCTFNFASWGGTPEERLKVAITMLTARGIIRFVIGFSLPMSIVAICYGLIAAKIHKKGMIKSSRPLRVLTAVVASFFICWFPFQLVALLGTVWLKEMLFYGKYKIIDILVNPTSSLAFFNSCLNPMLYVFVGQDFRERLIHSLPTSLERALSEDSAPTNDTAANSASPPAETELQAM
Put plainly: Intracellular calcium measurements (FLIPR), ALX receptor agonistic activity. Format: cell-based. The settings on record: HEK293-hALXR-Gα16 cells; Fluo-4 calcium fluorescence; normalized to WKYMVm 10 nM. As for the experimental part: The ALX receptor agonistic activity of the compounds of formula (I) is determined in accordance with the following experimental method.
Intracellular Calcium Measurements:
Cells expressing recombinant human ALX receptor and the G-protein Gα16 (HEK293-hALXR-Gα16) were grown to 80% confluency in Growing Medium (GM). Cells were detached from culture dishes with a cell dissociation buffer (Invitrogen, 13151-014), and collected by centrifugation at 1,000 rpm at rt for 5 min in Assay Buffer (AB) (equal parts of Hank's BSS (Gibco, 14065-049) and DMEM without Phenol Red (Gibco, 11880-028)). After 60 min incubation at 37° C. under 5% CO2 in AB supplemented with 1 μM Fluo-4 (AM) (Invitrogen, F14202) and 20 mM HEPES (Gibco, 15630-056), the cells were washed and resuspended in AB. They were then seeded onto 384-well FLIPR assay plates (Greiner, 781091) at 50,000 cells in 70 μl per well and sedimented by centrifugation at 1,000 rpm for 1 min. Stock solutions of test compounds were made up at a concentration of 10 mM in DMSO, and serially diluted in AB to concentrations required for activation dose response curves. WKYMVm (Phoenix Peptides) was used as a reference agonist. A FLIPR Tetra instrument (Molecular Devices) was operated according to the manufacturer's standard instructions, adding 4 μl of test compound dissolved at 10 mM in DMSO and diluted prior to the experiment in assay buffer to obtain the desired final concentration. Changes in fluorescence were monitored before and after the addition of test compounds at lex=488 nm and lem=540 nm. Emission peak values above base level after compounds addition were exported after base line subtraction. Values were normalized to high-level control (WKYMVm compound, 10 nM final concentration) after subtraction of the base line value (AB addition).
(Calcium flux is commonly read through the fluorescence of an indicator in the cells.)
The term EC50 denotes the concentration giving half of the maximal effect. Turning to `CC(=O)CCCCc1nc(NC(=O)OCc2ccccc2Cl)co1` [Example 1, [2-(5-Oxo-hexyl)-oxazol-4-yl]-carbamic acid 2-chloro-benzyl ester], the EC50 is 0.0003 µM.
As for `CC(=O)CCCCc1nc(NC(=O)c2ncoc2-c2ccccc2)co1` [Example 2, 5-Phenyl-oxazole-4-carboxylic acid [2-(5-oxo-hexyl)-oxazol-4-yl]-amide], the figure is 0.018 µM; as for `CC(=O)c1ccn(Cc2nc(NC(=O)OCc3ccccc3Cl)co2)n1` [Example 3, [2-(3-Acetyl-pyrazol-1-ylmethyl)-oxazol-4-yl]-carbamic acid 2-chloro-benzyl ester], 0.0007 µM; as for `CC(F)(F)CCCCc1nc(NC(=O)OCc2ccccc2Cl)co1` [Example 4, [2-(5,5-Difluoro-hexyl)-oxazol-4-yl]-carbamic acid 2-chloro-benzyl ester], 0.013 µM.
To `Cc1cccc(-c2oc(C)nc2C(=O)Nc2coc(CCCCC(C)(F)F)n2)c1` [Example 5, 2-Methyl-5-m-tolyl-oxazole-4-carboxylic acid [2-(5,5-difluoro-hexyl)-oxazol-4-yl]-amide] belongs 0.194 µM; to `CC(=O)CCCCc1nc(NC(=O)c2nc(C)oc2-c2cccc(C)c2)co1` [Example 6, 2-Methyl-5-m-tolyl-oxazole-4-carboxylic acid [2-(5-oxo-hexyl)-oxazol-4-yl]-amide], 0.0098 µM.
To `CC(=O)CCCCc1nc(NC(=O)c2ncsc2-c2cccc(F)c2)co1` [Example 7, 5-(3-Fluoro-phenyl)-thiazole-4-carboxylic acid [2-(5-oxo-hexyl)-oxazol-4-yl]-amide] belongs 0.784 µM.
For the compound `CC(=O)CCCCc1nc(NC(=O)c2ncoc2-c2ccc(F)cc2)co1` [Example 8, 5-(4-Fluoro-phenyl)-oxazole-4-carboxylic acid [2-(5-oxo-hexyl)-oxazol-4-yl]-amide], the EC50 was found to be 0.086 µM.
To `CCc1nc(C(=O)Nc2coc(CCCCC(C)=O)n2)c(-c2ccccc2)o1` [Example 9, 2-Ethyl-5-phenyl-oxazole-4-carboxylic acid [2-(5-oxo-hexyl)-oxazol-4-yl]-amide] belongs 0.0032 µM; to `O=C(Nc1coc(Cn2cc(Br)cn2)n1)OCc1ccccc1Cl` [Example 10, [2-(4-Bromo-pyrazol-1-ylmethyl)-oxazol-4-yl]-carbamic acid 2-chloro-benzyl ester], 0.072 µM.
As for `CC(=O)c1ccn(Cc2nc(NC(=O)OCc3ccc(F)cc3Cl)co2)n1` [Example 11, [2-(3-Acetyl-pyrazol-1-ylmethyl)-oxazol-4-yl]-carbamic acid 2-chloro-4-fluoro-benzyl ester], the figure is 0.0005 µM; as for `COc1cccc(COC(=O)Nc2coc(Cn3ccc(C(C)=O)n3)n2)c1` [Example 12, [2-(3-Acetyl-pyrazol-1-ylmethyl)-oxazol-4-yl]-carbamic acid 3-methoxy-benzyl ester], 0.001 µM.
As for `CC(=O)c1ccn(Cc2nc(NC(=O)OCc3ccc(C(F)(F)F)cc3)co2)n1` [Example 13, [2-(3-Acetyl-pyrazol-1-ylmethyl)-oxazol-4-yl]-carbamic acid 4-trifluoromethyl-benzyl ester], the figure is 0.012 µM; as for `CC(=O)c1ccc(Cc2nc(NC(=O)OCc3ccccc3Cl)co2)s1` [Example 14, [2-(5-Acetyl-thiophen-2-ylmethyl)-oxazol-4-yl]-carbamic acid 2-chloro-benzyl ester], 0.0022 µM; as for `CC(=O)c1cccc(Cc2nc(NC(=O)OCc3cccc(OC(F)(F)F)c3)co2)c1` [Example 15, [2-(3-Acetyl-benzyl)-oxazol-4-yl]-carbamic acid 3-trifluoromethoxy-benzyl ester], 0.048 µM.
Turning to `CC(=O)c1ccn(Cc2nc(NC(=O)c3nc(C4CC4)sc3-c3ccccc3)co2)n1` [Example 16, 2-Cyclopropyl-5-phenyl-thiazole-4-carboxylic acid [2-(3-acetyl-pyrazol-1-ylmethyl)-oxazol-4-yl]-amide], the EC50 was 6.56 µM.
With `CC(=O)c1cccc(Cc2nc(NC(=O)/C=C/c3ccc(C(F)(F)F)cc3)co2)c1` [Example 17, (E)-N-[2-(3-Acetyl-benzyl)-oxazol-4-yl]-3-(4-trifluoromethyl-phenyl)-acrylamide], the 50% effective concentration (EC50) was 1.31 µM.
As for `CC(=O)c1ccc(Cc2nc(NC(=O)c3ncoc3-c3ccccc3)cs2)s1` [Example 18, 5-Phenyl-oxazole-4-carboxylic acid [2-(5-acetyl-thiophen-2-ylmethyl)-thiazol-4-yl]-amide], the EC50 amounted to 1.57 µM.
Take `CC(=O)c1ccc(Cc2nc(NC(=O)c3nc(C)oc3-c3cccc(Cl)c3)cs2)s1` [Example 19, 5-(3-Chloro-phenyl)-2-methyl-oxazole-4-carboxylic acid [2-(5-acetyl-thiophen-2-ylmethyl)-thiazol-4-yl]-amide]: the EC50 came to 3.64 µM.
As for `CC(=O)c1ccc(Cc2nc(NC(=O)c3ncoc3-c3ccccc3)cs2)o1` [Example 20, 5-Phenyl-oxazole-4-carboxylic acid [2-(5-acetyl-furan-2-ylmethyl)-thiazol-4-yl]-amide], the figure is 0.062 µM.
In the case of `CC(=O)c1ccc(Cc2nc(NC(=O)c3nc(C)oc3-c3cccc(C)c3)cs2)o1` [Example 21, 2-Methyl-5-m-tolyl-oxazole-4-carboxylic acid [2-(5-acetyl-furan-2-ylmethyl)-thiazol-4-yl]-amide], the EC50 came out at 0.216 µM.

The values are drawn from patent US8674111B2, “Oxazole and thiazole derivatives as ALX receptor agonists” (Actelion Pharmaceuticals Ltd., priority 2009, dated 2014).
